Measured values from patent US9156796B2, “Benzoimidazole-carboxylic acid amide derivatives as APJ receptor modulators” (SANOFI, priority 2013, dated 2015).

These compounds were tested against T1, human apelin receptor (Homo sapiens, UniProt P35414) (assay: Determination of agonism on the human apelin receptor by a calcium fluorescence assay (FLIPR)). Conditions: HEK293 cells stably transfected with human apelin receptor and Giaq protein, Fluo-4 calcium fluorescence, read-out: EC50 (APJ agonism).
T1 construct: expressed in transfected cells
T1 sequence (P35414 1-380): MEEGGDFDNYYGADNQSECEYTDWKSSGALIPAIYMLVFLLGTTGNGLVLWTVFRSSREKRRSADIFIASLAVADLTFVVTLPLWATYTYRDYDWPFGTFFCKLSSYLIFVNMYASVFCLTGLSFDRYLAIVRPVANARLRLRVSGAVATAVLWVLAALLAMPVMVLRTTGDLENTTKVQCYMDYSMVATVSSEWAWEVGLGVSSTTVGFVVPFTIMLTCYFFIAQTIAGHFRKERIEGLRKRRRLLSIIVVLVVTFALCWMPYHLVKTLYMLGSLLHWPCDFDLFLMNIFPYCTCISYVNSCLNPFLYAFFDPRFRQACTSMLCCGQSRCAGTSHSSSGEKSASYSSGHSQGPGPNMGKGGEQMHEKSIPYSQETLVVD
Format: cell-based
Description: Determination of Agonism on the Human Apelin Receptor by a Calcium Fluorescence Assay (FLIPR)
The assay is based on the detection of intracellular calcium changes detected by the selective, calcium-chelating dye Fluo-4 (Molecular Probes). A large fluorescence intensity increase is observed upon calcium association with Fluo-4. The dye is delivered to the cell interior using an acetoxymethylester form of Fluo-4, where the intracellular esterase activity results in the charged species being released and trapped within the cytoplasm of the cell. […] By co-expressing the human apelin receptor and a promiscuous Giaq protein, agonism of the apelin receptor couples to phospholipase-C resulting in intracellular calcium mobilization.
The HEK293 cells were stably transfected with the human apelin receptor and the Giaq protein. Cells were selected and maintained in a log phase of growth at 37° and 5% CO2 in the Iscove's minimal essential medium, 10% fetal calf serum, 1× Penicillin-Streptomycin, 400 μg/mL G418. One day prior the assay, cells were passaged by accutase and plated at a density of 50,000 cells/well onto a 96-well plates with black border but clear bottom (Costar, cat#3904) in a final volume of 200 μl growth medium.
In order to load the cells the next day with the calcium-sensitive dye, growth medium was carefully replaced by dye solution (100 μl/well) containing Fluo-4 (4 μM) in basic measurement buffer (135 mM NaCl, 5 mM KCl, 1 mM magnesium sulphate, 5 mM glucose, 20 mM Hepes, 2.5 mM probenecid; adjusted to pH 7.4). Cells were incubated for 1 h at 37° C., and then washed 3× with buffer containing no dye. The washer was programmed to leave a remaining volume of 150 μl after the third wash in the plate.
During the dye-loading of the cells, a serial compound dilution was performed in a separate 96-well plate with overall 4× increased concentrations. Small aliquots of DMSO stock solutions of the compounds (10 mM in 100% DMSO were aliquoted into 150 μl buffer in the first rows of the 96-well plates, and then serially diluted by a factor of 1:3 transferring each time 30 μl to the next rows already containing 60 μl buffer. All compounds were tested in a least 7 concentrations, each condition was performed in triplicates. As comparator, we used freshly prepared apelin-13 solutions, for which also a concentration-response curve was determined at each measurement day. The compound plate was incubated for 10 min after the final dilutions steps at 37° C. before transferring the dye-loaded cell plate and the compound plate into a FLIPR Tetra reader (Molecular Devices). Measurement within this reader started by pipetting the agonist solution (50 μl) on the cell plate. Overall perform 60 reads were performed with an interval of 2 sec. The maximum of the fluorescence transient was used to calculate the agonistic response of the cells. In order to normalize this response, which may vary from plate to plate we set the maximum fluorescence achieved by 1 μM apelin-13 on this plate as 100%.
EC-50 values for apelin-13 and the apelin receptor compounds described in this patent were determined by standard algorithms using a specific software package.
In the case of `CCC(CC)n1c(Cc2cccs2)nc2cc(C(=O)N[C@@H](CC(C)C)C(=O)N3CC4CC3CN4CC3CCCC3)ccc21` (stereo partly drawn) [Example 349, 1-(1-Ethyl-propyl)-2-thiophen-2-ylmethyl-1H-benzoimidazole-5-carboxylic acid [(S)-1-(5-cyclopentylmethyl-2,5-diaza-bicyclo[2.2.1]heptane-2-carbonyl)-3-methyl-butyl]-amide], the EC50 is reported as 3040 nM. `CCC(CC)n1c(Cc2cccs2)nc2cc(C(=O)N[C@@H](CC(C)C)C(=O)NCC3CCCN(C)C3)ccc21` (stereo partly drawn) [Example 297, 1-(1-Ethyl-propyl)-2-thiophen-2-ylmethyl-1H-benzoimidazole-5-carboxylic acid {(S)-3-methyl-1-[(1-methyl-piperidin-3-ylmethyl)-carbamoyl]-butyl}-amide] was tested, and the EC50 was 390 nM. For `CCC(CC)n1c(Cc2cccs2)nc2cc(C(=O)N[C@@H](CC(C)C)C(=O)NCCC3CCCCN3Cc3ccccc3)ccc21` (stereo partly drawn) [Example 307, 1-(1-Ethyl-propyl)-2-thiophen-2-ylmethyl-1H-benzoimidazole-5-carboxylic acid {(S)-1-[2-(1-benzyl-piperidin-2-yl)-ethylcarbamoyl]-3-methyl-butyl}-amide], the EC50 was 1830 nM. For `CCC(CC)n1c(CC2CCCC2)nc2cc(C(=O)N[C@@H](CC(C)C)C(=O)O)ccc21` [Example 129, (S)-2-{[2-Cyclopentylmethyl-1-(1-ethyl-propyl)-1H-benzoimidazole-5-carbonyl]-amino}-4-methyl-pentanoic acid], the EC50 was 2680 nM. Work on `CCC(CC)n1c(Cc2cccs2)nc2cc(C(=O)NC(CC3CCCC3)C(=O)O)ccc21` (centres unmarked) [Example 11, 3-Cyclopentyl-2-{[1-(1-ethyl-propyl)-2-thiophen-2-ylmethyl-1H-benzoimidazole-5-carbonyl]-amino}-propionic acid] yielded an EC50 of 65 nM. Work on `CCC(CC)n1c(Cc2cccs2)nc2cc(C(=O)N[C@@H](CC(C)C)C(=O)NC3CCN(Cc4c(OC)cccc4OC)CC3)ccc21` [Example 288, 1-(1-Ethyl-propyl)-2-thiophen-2-ylmethyl-1H-benzoimidazole-5-carboxylic acid {(S)-1-[1-(2,6-dimethoxy-benzyl)-piperidin-4-ylcarbamoyl]-3-methyl-butyl}-amide] yielded an EC50 of 512 nM. For `CCC(CC)n1c(Cc2cccs2)nc2cc(C(=O)N[C@@H](CC(C)C)C(=O)N[C@@H](C)c3ccc(OC)cc3)ccc21` [Example 247, 1-(1-Ethyl-propyl)-2-thiophen-2-ylmethyl-1H-benzoimidazole-5-carboxylic acid {(S)-1-[(S)-1-(4-methoxy-phenyl)-ethylcarbamoyl]-3-methyl-butyl}-amide], the EC50 was 7220 nM. In the case of `CCCC[C@@H](CO)NC(=O)c1ccc2c(c1)nc(Cc1cccs1)n2C(CC)CC` [Example 199, 1-(1-Ethyl-propyl)-2-thiophen-2-ylmethyl-1H-benzoimidazole-5-carboxylic acid ((S)-1-hydroxymethyl-pentyl)-amide], the EC50 is reported as 710 nM. In the case of `CCC(CC)n1c(Cc2cccs2)nc2cc(C(=O)N[C@@H](CC(C)C)C(=O)N3CC[C@H](N(C)C)C3)ccc21` [Example 322, 1-(1-Ethyl-propyl)-2-thiophen-2-ylmethyl-1H-benzoimidazole-5-carboxylic acid [(S)-1-((S)-3-dimethylamino-pyrrolidine-1-carbonyl)-3-methyl-butyl]-amide], the EC50 is reported as 244 nM. `CCCC(CCO)NC(=O)c1ccc2c(c1)nc(Cc1cccs1)n2C(CC)CC` (centres unmarked) [Example 214, 1-(1-Ethyl-propyl)-2-thiophen-2-ylmethyl-1H-benzoimidazole-5-carboxylic acid [1-(2-hydroxy-ethyl)-butyl]-amide] was tested, and the EC50 was 926 nM. Compound `CCC(C)Cn1c(CC2CCCC2)nc2cc(C(=O)N[C@H](CC(=O)O)CC(C)C)ccc21` (stereo partly drawn) [Example 159, (S)-3-{[2-Cyclopentylmethyl-1-(2-methyl-butyl)-1H-benzoimidazole-5-carbonyl]-amino}-5-methyl-hexanoic acid] has an EC50 of 15000 nM. Compound `CCC(CC)n1c(Cc2ccno2)nc2cc(C(=O)N[C@H](CC(=O)O)CC(C)C)ccc21` [Example 105, (S)-3-{[1-(1-Ethyl-propyl)-2-isoxazol-5-ylmethyl-1H-benzoimidazole-5-carbonyl]-amino}-5-methyl-hexanoic acid] has an EC50 of 5470 nM. In the case of `CCC(CC)n1c(Cc2cccs2)nc2cc(C(=O)N[C@@H](CC(C)C)C(=O)NCCC3CCCCN3C)ccc21` (stereo partly drawn) [Example 289, 1-(1-Ethyl-propyl)-2-thiophen-2-ylmethyl-1H-benzoimidazole-5-carboxylic acid {(S)-3-methyl-1-[2-(1-methyl-piperidin-2-yl)-ethylcarbamoyl]-butyl}-amide], the EC50 is reported as 341 nM. Work on `CC(C)C[C@H](NC(=O)c1ccc2c(c1)nc(Cc1ccco1)n2C1CCCCC1C)C(=O)O` (single isomer, unassigned) [Example 416] yielded an EC50 of 25 nM. In the case of `CCC(CC)n1c(Cc2cccs2)nc2cc(C(=O)N[C@H](CO)C3CCCCC3)ccc21` [Example 204, 1-(1-Ethyl-propyl)-2-thiophen-2-ylmethyl-1H-benzoimidazole-5-carboxylic acid ((S)-1-cyclohexyl-2-hydroxy-ethyl)-amide], the EC50 is reported as 1990 nM. For `CCC1CCCCC1n1c(Cc2cccs2)nc2cc(C(=O)N[C@@H](CC(C)C)C(=O)O)ccc21` (stereo partly drawn) [Example 93, (S)-2-{[1-(2-Ethyl-cyclohexyl)-2-thiophen-2-ylmethyl-1H-benzoimidazole-5-carbonyl]-amino}-4-methyl-pentanoic acid], the EC50 was 291 nM. Work on `CCC[C@H](CO)NC(=O)c1ccc2c(c1)nc(Cc1cccs1)n2C(CC)CC` [Example 200, 1-(1-Ethyl-propyl)-2-thiophen-2-ylmethyl-1H-benzoimidazole-5-carboxylic acid ((R)-1-hydroxymethyl-butyl)-amide] yielded an EC50 of 8180 nM. `CCC(CC)n1c(Cc2cccs2)nc2cc(C(=O)N[C@@H](CC(C)C)C(=O)NCCCN3CCN(Cc4c(F)cccc4Cl)CC3)ccc21` [Example 277, 1-(1-Ethyl-propyl)-2-thiophen-2-ylmethyl-1H-benzoimidazole-5-carboxylic acid ((S)-1-{3-[4-(2-chloro-6-fluoro-benzyl)-piperazin-1-yl]-propylcarbamoyl}-3-methyl-butyl)-amide] showed an EC50 of 2100 nM. Work on `CCC(CC)n1c(Cc2cccs2)nc2cc(C(=O)N[C@@H](CC(C)C)C(=O)NCCc3cccs3)ccc21` [Example 223, 1-(1-Ethyl-propyl)-2-thiophen-2-ylmethyl-1H-benzoimidazole-5-carboxylic acid [(S)-3-methyl-1-(2-thiophen-2-yl-ethylcarbamoyl)-butyl]-amide] yielded an EC50 of 6960 nM. `CCCC(NC(=O)c1ccc2c(c1)nc(Cc1cccs1)n2C(CC)CC)C(C)(C)C(=O)O` (centres unmarked) [Example 63, 3-{[1-(1-Ethyl-propyl)-2-thiophen-2-ylmethyl-1H-benzoimidazole-5-carbonyl]-amino}-2,2-dimethyl-hexanoic acid] gave an EC50 of 343 nM. `CCC(CC)n1c(Cc2cccs2)nc2cc(C(=O)N[C@@H](CC(C)C)C(=O)NCCC(F)(F)F)ccc21` [Example 251, 1-(-Ethyl-propyl)-2-thiophen-2-ylmethyl-1H-benzoimidazole-5-carboxylic acid [(S)-3-methyl-1-(3,3,3-trifluoro-propylcarbamoyl)-butyl]-amide] was tested, and the EC50 was 2560 nM. `CC(C)C[C@H](NC(=O)c1ccc2c(c1)nc(Cc1ccco1)n2C1CCCCC1C)C(=O)O` (single isomer, unassigned) [Example 419] showed an EC50 of 313 nM. `CCC(CC)n1c(Cc2ccsc2)nc2cc(C(=O)N[C@@H](CC(C)C)C(=O)O)ccc21` [Example 117, (S)-2-{[1-(1-Ethyl-propyl)-2-thiophen-3-ylmethyl-1H-benzoimidazole-5-carbonyl]-amino}-4-methyl-pentanoic acid] gave an EC50 of 419 nM.
